These results are taken from patent US11173150B2, “Method for diagnosing, preventing, and treating neurological diseases” (United States Government As Represented By The Department …, priority 2010, dated 2021).

The conditions of series [1]: cited from earlier work.
For the next series, the system named is Desulfovibrio. Nature of the series: Antimicrobial susceptibility testing, CLSI serial two-fold plate dilution. The series is classed as cell-based.
A further series relates to clostridia. The settings on record: cited from earlier work.
Another series has as its target tetanus toxin (Clostridium tetani, UniProt P04958). The settings on record: cited from earlier work.
Setting [2] is: Desulfovibrio, Desulfovibrio strain 8951, read-out: MIC.
[3] abbreviates: Desulfovibrio, Desulfovibrio strain 11232, read-out: MIC.
Setting [4] is: Desulfovibrio, Desulfovibrio strain 11437, read-out: MIC.
Where [5] appears, read: Desulfovibrio, Desulfovibrio strain 11789, read-out: MIC.
The mark [6] stands for this setting: Desulfovibrio, Desulfovibrio strain 11830, read-out: MIC.
[7] abbreviates: Desulfovibrio, Desulfovibrio strain 12379, read-out: MIC.
[8] abbreviates: Desulfovibrio, Desulfovibrio strain 13966, read-out: MIC.
The mark [9] stands for this setting: Desulfovibrio, Desulfovibrio type strain 29098^T, read-out: MIC.
[10] abbreviates: Desulfovibrio type strain 7757^T.
[11] abbreviates: Desulfovibrio type strain 29098^T.

In brackets after ≈: the same amount, converted by molar mass. Read-outs that look alike come from different tables or passages of the source. Bridge positions count the residues as written; N and C are the ends. Square brackets hold non-standard residues; d marks the D form. Peptide text beside a SMILES is read from it. * marks the point of attachment. Octanoyl(6-Me) = CCC(C)CCCCC(=O)*; Dab = NCC[CH](N)C(=O)O

tetanus toxin, sequence (P04958 whole entry, looked up): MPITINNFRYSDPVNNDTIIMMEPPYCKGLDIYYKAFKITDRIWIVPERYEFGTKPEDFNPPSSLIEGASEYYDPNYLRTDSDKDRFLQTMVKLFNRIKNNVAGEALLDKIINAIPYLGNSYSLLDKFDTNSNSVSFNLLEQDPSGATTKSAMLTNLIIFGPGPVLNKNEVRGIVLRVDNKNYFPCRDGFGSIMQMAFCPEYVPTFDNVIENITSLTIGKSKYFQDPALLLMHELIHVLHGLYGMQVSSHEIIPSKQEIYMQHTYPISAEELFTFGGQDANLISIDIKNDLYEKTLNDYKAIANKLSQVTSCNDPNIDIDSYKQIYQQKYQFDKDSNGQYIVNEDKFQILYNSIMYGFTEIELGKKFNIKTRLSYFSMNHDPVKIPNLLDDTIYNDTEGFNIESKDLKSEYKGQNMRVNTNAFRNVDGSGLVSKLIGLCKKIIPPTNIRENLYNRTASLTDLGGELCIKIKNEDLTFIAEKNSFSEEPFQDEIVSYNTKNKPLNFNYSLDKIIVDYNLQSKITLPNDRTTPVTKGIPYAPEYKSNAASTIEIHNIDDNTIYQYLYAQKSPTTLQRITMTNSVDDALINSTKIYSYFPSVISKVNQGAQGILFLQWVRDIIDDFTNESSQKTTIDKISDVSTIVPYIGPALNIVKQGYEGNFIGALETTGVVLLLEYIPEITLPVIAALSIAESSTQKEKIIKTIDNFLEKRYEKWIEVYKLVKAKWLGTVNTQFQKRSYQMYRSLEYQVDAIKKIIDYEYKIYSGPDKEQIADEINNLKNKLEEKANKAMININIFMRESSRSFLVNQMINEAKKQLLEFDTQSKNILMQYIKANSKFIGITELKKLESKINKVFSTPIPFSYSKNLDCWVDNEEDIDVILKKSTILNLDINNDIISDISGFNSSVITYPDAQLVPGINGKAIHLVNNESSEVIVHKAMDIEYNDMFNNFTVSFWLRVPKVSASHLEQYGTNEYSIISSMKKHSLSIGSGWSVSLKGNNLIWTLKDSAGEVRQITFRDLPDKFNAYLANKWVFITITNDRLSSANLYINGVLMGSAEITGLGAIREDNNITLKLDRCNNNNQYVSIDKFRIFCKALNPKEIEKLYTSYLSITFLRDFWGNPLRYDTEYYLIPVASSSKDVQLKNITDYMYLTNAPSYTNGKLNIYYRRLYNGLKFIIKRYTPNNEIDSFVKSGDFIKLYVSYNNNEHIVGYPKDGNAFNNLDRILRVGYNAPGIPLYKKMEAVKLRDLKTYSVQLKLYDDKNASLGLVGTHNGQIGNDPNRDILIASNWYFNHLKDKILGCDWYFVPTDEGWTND

The MIC is the smallest concentration in the dilution series that meets the test's criterion for growth inhibition. Consider `NC[C@H]1O[C@H](O[C@H]2[C@H](O)[C@@H](O[C@H]3O[C@H](CO)[C@@H](O)[C@H](N)[C@H]3O)[C@H](N)C[C@@H]2N)[C@H](O)[C@@H](O)[C@@H]1O` [Kanamycin], for which, in series [1] (in vivo, po), the “Absorption when given by the oral route” value was “virtually unabsorbed”. For the same molecule, the MIC in the series on Desulfovibrio (Desulfovibrio, Desulfovibrio strain 4019, read-out: MIC) worked out at 512 µg/mL (≈ 1060 µM); in the series on Desulfovibrio (Desulfovibrio, Desulfovibrio strain 8236, read-out: MIC), 512 µg/mL (≈ 1060 µM); with Desulfovibrio (Desulfovibrio, Desulfovibrio strain 8381, read-out: MIC), 256 µg/mL (≈ 528 µM); in the series with Desulfovibrio (Desulfovibrio, Desulfovibrio strain 8907, read-out: MIC) it was 256 µg/mL (≈ 528 µM); with Desulfovibrio (Desulfovibrio, Desulfovibrio strain 8933, read-out: MIC), 512 µg/mL (≈ 1060 µM); with Desulfovibrio (setting [2]), 512 µg/mL (≈ 1060 µM). The minimum inhibitory concentration (MIC) in the series with Desulfovibrio (Desulfovibrio, Desulfovibrio strain 9070, read-out: MIC) was found to be 512 µg/mL (≈ 1060 µM); in the series with Desulfovibrio (Desulfovibrio, Desulfovibrio strain 9120, read-out: MIC) it was 256 µg/mL (≈ 528 µM); in the series on Desulfovibrio (Desulfovibrio, Desulfovibrio strain 9706, read-out: MIC) it was 256 µg/mL (≈ 528 µM); with Desulfovibrio (Desulfovibrio, Desulfovibrio strain 9976, read-out: MIC), 128 µg/mL (≈ 264 µM); in the series with Desulfovibrio (Desulfovibrio, Desulfovibrio strain 10831, read-out: MIC) it was 256 µg/mL (≈ 528 µM); with Desulfovibrio (Desulfovibrio, Desulfovibrio strain 11081, read-out: MIC), 512 µg/mL (≈ 1060 µM). For the same molecule, the minimum inhibitory concentration (MIC) with Desulfovibrio (Desulfovibrio, Desulfovibrio strain 11094, read-out: MIC) was 512 µg/mL (≈ 1060 µM); in the series on Desulfovibrio (setting [3]), 256 µg/mL (≈ 528 µM); in the series on Desulfovibrio (Desulfovibrio, Desulfovibrio strain 11346, read-out: MIC), 512 µg/mL (≈ 1060 µM); in the series with Desulfovibrio (Desulfovibrio, Desulfovibrio strain 11378, read-out: MIC), 512 µg/mL (≈ 1060 µM); in the series on Desulfovibrio (setting [4]) it was 128 µg/mL (≈ 264 µM); in the series with Desulfovibrio (Desulfovibrio, Desulfovibrio strain 11568, read-out: MIC) it was 512 µg/mL (≈ 1060 µM). Also, the MIC in the series with Desulfovibrio (Desulfovibrio, Desulfovibrio strain 11623, read-out: MIC) worked out at 256 µg/mL (≈ 528 µM); in the series with Desulfovibrio (Desulfovibrio, Desulfovibrio strain 11717, read-out: MIC), 512 µg/mL (≈ 1060 µM); with Desulfovibrio (setting [5]) it was 256 µg/mL (≈ 528 µM); with Desulfovibrio (setting [6]), 128 µg/mL (≈ 264 µM); with Desulfovibrio (Desulfovibrio, Desulfovibrio strain 11949, read-out: MIC), 128 µg/mL (≈ 264 µM); in the series on Desulfovibrio (setting [7]) it was 512 µg/mL (≈ 1060 µM). The MIC in the series on Desulfovibrio (setting [8]) stood at 512 µg/mL (≈ 1060 µM); in the series on Desulfovibrio (Desulfovibrio, Desulfovibrio type strain 7757^T, read-out: MIC), 512 µg/mL (≈ 1060 µM); with Desulfovibrio (setting [9]), 128 µg/mL (≈ 264 µM).
Consider `C[C@H]1[C@H](NC(=O)/C(=N\OC(C)(C)C(=O)O)c2csc(N)n2)C(=O)N1S(=O)(=O)O` [Aztreonam], for which, in series [1] (oral), the “Absorption when given by the oral route” value is reported as “virtually unabsorbed”. For the same molecule, the minimal inhibitory concentration (MIC) in the series on Desulfovibrio (Desulfovibrio, Desulfovibrio strain 4019) came to 512 µg/mL (≈ 1180 µM); against Desulfovibrio (Desulfovibrio, Desulfovibrio strain 8381) it was 128 µg/mL (≈ 294 µM); in the series on Desulfovibrio (setting [2]), 64 µg/mL (≈ 147 µM); against Desulfovibrio (Desulfovibrio, Desulfovibrio strain 9070) it was 512 µg/mL (≈ 1180 µM); in the series on Desulfovibrio (setting [3]), 64 µg/mL (≈ 147 µM); with Desulfovibrio (setting [4]), 64 µg/mL (≈ 147 µM). Further, the minimum inhibitory concentration (MIC) in the series on Desulfovibrio (setting [5]) amounted to 32 µg/mL (≈ 73.5 µM); with Desulfovibrio (setting [6]), 64 µg/mL (≈ 147 µM); in the series on Desulfovibrio (setting [7]), 16 µg/mL (≈ 36.7 µM); in the series on Desulfovibrio (setting [8]) it was 24 µg/mL (≈ 55.1 µM); in the series on Desulfovibrio (setting [9]), 32 µg/mL (≈ 73.5 µM).
Take ramoplanin: in series [1] (humans), the “Systemic absorption in humans” value is reported as “not detectably absorbed”. For the same molecule, the Activity against clostridia entry with clostridia was “very good activity”.
Turning to `C[C@H](CS)C(=O)N1CCC[C@H]1C(=O)O` [Captopril], the “Effect on tetanus toxin in vitro” value on tetanus toxin is “inactivates”.
With Colistin, in series [1] (oral), the “Absorption when given by the oral route” value is on record as “virtually unabsorbed”. Further, the “Penetration of the intestinal mucosa” value in series [1] (oral) is “do not penetrate the intestinal mucosa”. Besides, the minimum inhibitory concentration (MIC) against Desulfovibrio (Desulfovibrio strain 4019), in the series with Desulfovibrio (Desulfovibrio strain 8236), with Desulfovibrio (Desulfovibrio strain 8381), in the series on Desulfovibrio (Desulfovibrio strain 8907), against Desulfovibrio (Desulfovibrio strain 8933) and in the series on Desulfovibrio (Desulfovibrio strain 8951) was >512 µg/mL in each case. The MIC in the series with Desulfovibrio (Desulfovibrio strain 9070), with Desulfovibrio (Desulfovibrio strain 9120), with Desulfovibrio (Desulfovibrio strain 9706), against Desulfovibrio (Desulfovibrio strain 9976), against Desulfovibrio (Desulfovibrio strain 10831) and with Desulfovibrio (Desulfovibrio strain 11081) was >512 µg/mL throughout. Besides, the minimum inhibitory concentration (MIC) with Desulfovibrio (Desulfovibrio strain 11094), against Desulfovibrio (Desulfovibrio strain 11232), in the series on Desulfovibrio (Desulfovibrio strain 11346), in the series on Desulfovibrio (Desulfovibrio strain 11378), with Desulfovibrio (Desulfovibrio strain 11437) and against Desulfovibrio (Desulfovibrio strain 11568) was >512 µg/mL in each case. Also, the MIC in the series with Desulfovibrio (Desulfovibrio strain 11623), against Desulfovibrio (Desulfovibrio strain 11717), in the series with Desulfovibrio (Desulfovibrio strain 11789), in the series with Desulfovibrio (Desulfovibrio strain 11830), against Desulfovibrio (Desulfovibrio strain 11949) and with Desulfovibrio (Desulfovibrio strain 12379) was >512 µg/mL in each case. The MIC in the series with Desulfovibrio (Desulfovibrio strain 13966), with Desulfovibrio (setting [10]) and with Desulfovibrio (setting [11]) was >512 µg/mL each time.
For the molecule `CCC(C)CCCCC(=O)NC(CCN)C(=O)NC(C(=O)NC(CCN)C(=O)NC1CCNC(=O)C(C(C)O)NC(=O)C(CCN)NC(=O)C(CCN)NC(=O)C(CC(C)C)NC(=O)C(Cc2ccccc2)NC(=O)C(CCN)NC1=O)C(C)O` (stereo not shown) [Polymyxin B] ({Octanoyl(6-Me)}-[Dab]T[Dab][Dab][Dab]FL[Dab][Dab]T; lactam 4-C; configuration not given here), the “Absorption when given by the oral route” value in series [1] (oral) is on record as “virtually unabsorbed”. Also, the “Penetration of the intestinal mucosa” value in series [1] (oral) was “do not penetrate the intestinal mucosa”. Further, the minimum inhibitory concentration (MIC) was 256 µg/mL (≈ 213 µM) with Desulfovibrio (Desulfovibrio strain 4019); 256 µg/mL (≈ 213 µM) in the series on Desulfovibrio (Desulfovibrio strain 8236); >512 µg/mL in the series on Desulfovibrio (Desulfovibrio strain 8381); >512 µg/mL in the series with Desulfovibrio (Desulfovibrio strain 8907); >512 µg/mL against Desulfovibrio (Desulfovibrio strain 8933); >512 µg/mL in the series with Desulfovibrio (Desulfovibrio strain 8951). Moreover, the MIC in the series with Desulfovibrio (Desulfovibrio strain 9070) is >512 µg/mL; with Desulfovibrio (Desulfovibrio strain 9120), >512 µg/mL; in the series on Desulfovibrio (Desulfovibrio strain 9706) it was >512 µg/mL; in the series with Desulfovibrio (Desulfovibrio strain 9976), >512 µg/mL; against Desulfovibrio (Desulfovibrio strain 10831) it was 128 µg/mL (≈ 106 µM); against Desulfovibrio (Desulfovibrio strain 11081), 256 µg/mL (≈ 213 µM). Further, the minimum inhibitory concentration (MIC) is 256 µg/mL (≈ 213 µM) in the series on Desulfovibrio (Desulfovibrio strain 11094); >512 µg/mL against Desulfovibrio (Desulfovibrio strain 11232); >512 µg/mL against Desulfovibrio (Desulfovibrio strain 11346); 256 µg/mL (≈ 213 µM) in the series on Desulfovibrio (Desulfovibrio strain 11378); >512 µg/mL in the series on Desulfovibrio (Desulfovibrio strain 11437); >512 µg/mL in the series with Desulfovibrio (Desulfovibrio strain 11568). The minimum inhibitory concentration (MIC) is >512 µg/mL in the series on Desulfovibrio (Desulfovibrio strain 11623); 256 µg/mL (≈ 213 µM) with Desulfovibrio (Desulfovibrio strain 11717); 16 µg/mL (≈ 13.3 µM) in the series on Desulfovibrio (Desulfovibrio strain 11789); 128 µg/mL (≈ 106 µM) against Desulfovibrio (Desulfovibrio strain 11830); >512 µg/mL with Desulfovibrio (Desulfovibrio strain 11949); 8 µg/mL (≈ 6.65 µM) against Desulfovibrio (Desulfovibrio strain 12379). Besides, the MIC with Desulfovibrio (Desulfovibrio strain 13966) was >512 µg/mL; against Desulfovibrio (setting [10]), 256 µg/mL (≈ 213 µM); in the series on Desulfovibrio (setting [11]), 256 µg/mL (≈ 213 µM).
Consider Trimethoprim/sulfamethoxazole [TMX/Sul], for which the MIC was 256 µg/mL in the series on Desulfovibrio (Desulfovibrio strain 8381); 512 µg/mL with Desulfovibrio (Desulfovibrio strain 8907); 256 µg/mL against Desulfovibrio (Desulfovibrio strain 8933); 256 µg/mL against Desulfovibrio (Desulfovibrio strain 8951); >512 µg/mL against Desulfovibrio (Desulfovibrio strain 9070); 256 µg/mL in the series on Desulfovibrio (Desulfovibrio strain 9120). Besides, the MIC is 256 µg/mL in the series with Desulfovibrio (Desulfovibrio strain 9706); 256 µg/mL against Desulfovibrio (Desulfovibrio strain 9976); 128 µg/mL with Desulfovibrio (Desulfovibrio strain 11232); 512 µg/mL against Desulfovibrio (Desulfovibrio strain 11346); 4 µg/mL against Desulfovibrio (Desulfovibrio strain 11437); >512 µg/mL in the series with Desulfovibrio (Desulfovibrio strain 11568). The minimal inhibitory concentration (MIC) was 512 µg/mL in the series on Desulfovibrio (Desulfovibrio strain 11623); 512 µg/mL against Desulfovibrio (Desulfovibrio strain 11949); 512 µg/mL against Desulfovibrio (Desulfovibrio strain 13966); >512 µg/mL in the series with Desulfovibrio (setting [10]); 256 µg/mL in the series with Desulfovibrio (setting [11]).
